Assay [1] has as its target Oseltamivir resistant (with H274Y mutation) neuraminidase (Influenza A virus, UniProt P03468, H260Y). In kind it is biochemical, recombinant PR8 virus with H274Y mutation.
In assay [2] the test system is PR8 resistant recombinant virus with H274Y mutation in MDCK cells. In kind it is cell-based.

Entries after “also recorded” stand apart in the source; their conditions may differ.

For `O=c1oc2c(O)c(O)cc3c(=O)oc4c(O)c(O)cc1c4c23` [B21, Ellagic acid], the “NA inhibitory activity on oseltamivir resistant NA” value in assay [1] is on record as “can obviously inhibit NA activities”. `O=C(/C=C/c1ccc(O)cc1)OC[C@H]1O[C@@H](Oc2c(-c3ccc(O)cc3)oc3cc(O)cc(O)c3c2=O)[C@H](O)[C@@H](O)[C@@H]1O` [B23, Tiliroside]: the “Effect on replication of oseltamivir resistant (H274Y) PR8 virus in MDCK cells” value in assay [2] is “obviously reduce; also recorded: greatly reduce”. For `COC(=O)C1CC(=O)c2oc(=O)c3cc(O)c(O)c(O)c3c21` (stereo not shown) [B15, Methyl brevifolin carboxylate], in assay [1], the “NA inhibitory activity on oseltamivir resistant NA” value is listed as “can obviously inhibit NA activities”. As for `CCOC(=O)C1=C[C@@H](OC(CC)CC)[C@H](NC(C)=O)[C@@H](N)C1` [Oseltamivir], the “Anti-virus effect on resistant virus with NA H274Y mutation in MDCK cells” value in assay [2] is “didn't show obvious anti-virus effects”.

Values taken from paper PMC7606179 (Acta Pharmaceutica Sinica. B, 2020).
